Results taken from patent US6956040B2, “Oxazolidinone piperazinyl derivatives as potential antimicrobials” (Ranbaxy Laboratories Limited, priority 2001, dated 2005).
Converted amounts (≈) assume the structure as drawn.

Key:
[1] = system: MRSA 15187; experiment: MIC, agar incorporation method; format: cell-based, Staphylococcus aureus; conditions: MRSA 15187; agar incorporation
Description: (§1) The compounds of the invention display antibacterial activity when tested by the agar incorporation method. The following minimum inhibitory concentrations (μg/ml) were obtained for representative compounds of the invention which are given below in the following tables.
(§2) • 1) S.aureus ATCC 25923—Staphylococus aureus ATCC 25923 • 2) MRSA 15187—Methicillin Resistant Staphylococcus aureus • 3) Ent. faecalis ATCC 29212—Enterococcus faecalis ATCC 29212 • 4) Ent. faecium 6A—Enterococcus faecium 6A Van®, Cipro® • 5) Strep. pne. ATCC 6303—Streptococcus pneumoniae ATCC 6303 • 6) Strep. pyog. ATCC 19615—Streptococcus pyogenes • 7) S. epidermidis—Staphylococcus epidermidis ATCC 12228
(§3) Briefly, the compounds were dissolved in DMSO and doubling dilution of the compounds were incorporated into Meuller Hilton agar before solidification. Inoculum was prepared by suspending 4 to 5 colonies into 5 ml of normal saline solution and adjusting the turbidity to 0.5 Macfarland turbidity standard tables (1.5×10^8 CFU/ml), after appropriate dilutions, 10^4 CFU/spot was transfered into the surface of dried plate and incubated for 18 hours (24 hours for MRSN studies). The concentration showing no growth of the inoculated culture was recorded as the MIC. Appropriate ATCC standard strains were simultaneously tested and result recorded only when the MIC's against standard antibiotics were within the acceptable range.

[2] = system: S. aureus 25923; experiment: MIC, agar incorporation method; format: cell-based, Staphylococcus aureus; conditions: S. aureus 25923; agar incorporation
Description: as §1, §2, §3

[3] = system: S. pneum AB 34; experiment: MIC, agar incorporation method; format: cell-based, Streptococcus pneumoniae; conditions: S. pneum AB 34; agar incorporation
Method: as §1, §3

[4] = system: MRSA 33; experiment: MIC, agar incorporation method; format: cell-based, Staphylococcus aureus; conditions: MRSA 33; agar incorporation
Method: as §1, §3

[5] = system: MRSA 562; experiment: MIC, agar incorporation method; format: cell-based, Staphylococcus aureus; conditions: MRSA 562
Method: as §1, §3

[6] = system: VRE 6A; experiment: MIC, agar incorporation method; format: cell-based, Enterococcus faecium; conditions: VRE 6A; agar incorporation
Description: as §1, §2, §3

[7] = system: S. pyogenes 19615; experiment: MIC, agar incorporation method; format: cell-based, Streptococcus pyogenes; conditions: S. pyogenes 19615; agar incorporation
Description: as §1, §2, §3

[8] = system: E. faecalis 29212; experiment: MIC, agar incorporation method; format: cell-based, Enterococcus faecalis; conditions: E. faecalis 29212; agar incorporation
Description: as §1, §2, §3

[9] = system: S. pneum 6303; experiment: MIC, agar incorporation method; format: cell-based, Streptococcus pneumoniae; conditions: S. pneum 6303; agar incorporation
Description: as §1, §2, §3

[10] = system: MRSA 562; experiment: In vivo activity against MRSA 562 (ED50); design: species or system Staphylococcus aureus
[11] = system: S. aureus; experiment: Summary of in vitro activity (MIC) against S. aureus; format: cell-based, Staphylococcus aureus; conditions: S. aureus; for MIC50 / MIC90: Number 8
Method: as §1, §3

[12] = system: E. faecalis; experiment: Summary of in vitro activity (MIC) against E. faecalis; format: cell-based, Enterococcus faecalis; conditions: E. faecalis; for MIC50 / MIC90: Number 7
Method: as §1, §3

[13] = system: S. pneumoniae; experiment: Summary of in vitro activity (MIC) against S. pneumoniae; format: cell-based, Streptococcus pneumoniae; conditions: S. pneumoniae; for MIC50 / MIC90: Number 19
Method: as §1, §3

[14] = system: G+ve; experiment: Summary of in vitro activity (MIC) against G+ve bacteria; format: cell-based; conditions: for MIC50 / MIC90: G+ve, Number 49; for Geometric Mean of in vitro activity (MIC): Gram +ve
Method: as §1, §3

SMILES	MIC [1] [µg/mL]	MIC [2] [µg/mL]	MIC [3] [µg/mL]	MIC [4] [µg/mL]	MIC ([5]; agar incorporation, Table 1) [µg/mL]	MIC [6] [µg/mL]	MIC [7] [µg/mL]	MIC [8] [µg/mL]	MIC [9] [µg/mL]	also measured
CC(=O)NC[C@H]1CN(c2ccc(N3CCN(Cc4cccn4C)CC3)c(F)c2)C(=O)O1 [Compound No. 22, (S)-N[[3-[3-Fluoro-4-[N-1[4-{2-pyrrole(1-methyl)methyl}]-piperazinyl]phenyl]2-oxo-5-oxazolidinyl]methyl]acetamide]	8 (≈ 18.6 µM)	2 (≈ 4.66 µM)	1 (≈ 2.33 µM)	8 (≈ 18.6 µM)	4 (≈ 9.31 µM)	8 (≈ 18.6 µM)	1 (≈ 2.33 µM)	8 (≈ 18.6 µM)	1 (≈ 2.33 µM)	–
CC(=O)NC[C@H]1CN(c2ccc(N3CCN(Cc4ccc(C=NN)o4)CC3)c(F)c2)C(=O)O1 [Compound No. 62, (S)-N-[[3-[3-Fluoro-4[N-1-[4-{2-furyl-(5-hydrazone)-methyl}]-piperazinyl]-phenyl]-2-oxo-5-oxazolidinyl]-methyl]acetamide]	2 (≈ 4.36 µM)	2 (≈ 4.36 µM)	8 (≈ 17.4 µM)	2 (≈ 4.36 µM)	1 (≈ 2.18 µM)	8 (≈ 17.4 µM)	8 (≈ 17.4 µM)	8 (≈ 17.4 µM)	8 (≈ 17.4 µM)	–
CC(=O)NC[C@H]1CN(c2ccc(N3CCN(Cc4ccc(C=O)o4)CC3)c(F)c2)C(=O)O1 [Compound No. 02, (S)-N-[[3-[3-Fluoro-4-[N-1[4-{2-furyl(5-formyl)methyl}]piperazinyl]phenyl]-2-oxo-5-oxazolidinyl]methyl]acetamide]	2 (≈ 4.5 µM)	1 (≈ 2.25 µM)	8 (≈ 18 µM)	2 (≈ 4.5 µM)	1 (≈ 2.25 µM)	8 (≈ 18 µM)	8 (≈ 18 µM)	8 (≈ 18 µM)	4 (≈ 9 µM)	–
CC(=O)NC[C@H]1CN(c2ccc(N3CCN(Cc4ccc(Br)s4)CC3)c(F)c2)C(=O)O1 [Compound No. 27]	2 (≈ 3.91 µM)	2 (≈ 3.91 µM)	0.5 (≈ 0.978 µM)	2 (≈ 3.91 µM)	2 (≈ 3.91 µM)	4 (≈ 7.82 µM)	1 (≈ 1.96 µM)	2 (≈ 3.91 µM)	2 (≈ 3.91 µM)	–
CC(=O)NC[C@H]1CN(c2ccc(N3C[C@@H]4[C@@H](CN(C)Cc5ccc([N+](=O)[O-])s5)[C@@H]4C3)c(F)c2)C(=O)O1 [Compound No. 39, (S)-N-[[3-[3-Fluorol[4-[3-(1α,5α,6α)-6-[N-(5-nitro-2-thienyl-methyl)-N-methyl]aminomethyl]-3-azabicyclo-[3.1.0]hexane]phenyl]-2-oxo-5-oxazolidinyl]methyl]acetamide]	8 (≈ 15.5 µM)	8 (≈ 15.5 µM)	0.5 (≈ 0.966 µM)	4 (≈ 7.73 µM)	8 (≈ 15.5 µM)	8 (≈ 15.5 µM)	0.5 (≈ 0.966 µM)	2 (≈ 3.86 µM)	0.5 (≈ 0.966 µM)	–
CC(=O)NC[C@H]1CN(c2ccc(N3CCN(C(=O)C(=O)c4cccs4)CC3)c(F)c2)C(=O)O1 [Compound No. 07, (S)-N[[3-[3-Fluoro-4-[N-1[4-{2-(2-thienyl)dicarbonyl}]-piperazinyl]phenyl]2-oxo-5-oxazolidinyl]methyl]acetamide]	2 (≈ 4.21 µM)	2 (≈ 4.21 µM)	2 (≈ 4.21 µM)	2 (≈ 4.21 µM)	2 (≈ 4.21 µM)	2 (≈ 4.21 µM)	0.5 (≈ 1.05 µM)	2 (≈ 4.21 µM)	2 (≈ 4.21 µM)	MIC ([5]; Table 5): 2 µg/mL (≈ 4.21 µM); ED50 (mg/kg body weight) PO [10]: >25 mg/kg body weight
CC(=O)NC[C@H]1CN(c2ccc(N3CCN(Cc4ccc(NC=O)o4)CC3)c(F)c2)C(=O)O1 [Compound No. 67]	–	–	–	–	–	–	–	–	–	MIC ([5]; Table 5): 2 µg/mL (≈ 4.35 µM); ED50 (mg/kg body weight) PO [10]: >25 mg/kg body weight
CC(=O)NC[C@H]1CN(c2ccc(N3CCN(Cc4ccc(C5OCCCO5)o4)CC3)c(F)c2)C(=O)O1 [Compound No. 66]	2 (≈ 3.98 µM)	2 (≈ 3.98 µM)	8 (≈ 15.9 µM)	2 (≈ 3.98 µM)	2 (≈ 3.98 µM)	16 (≈ 31.8 µM)	8 (≈ 15.9 µM)	16 (≈ 31.8 µM)	8 (≈ 15.9 µM)	–
CC(=O)NC[C@H]1CN(c2ccc(N3CC4C(CN(C)Cc5ccc([N+](=O)[O-])o5)C4C3)c(F)c2)C(=O)O1 (stereo partly drawn) [Compound No. 40, (S)-N-[[3-[3-Fluoro[4-[3-(1α,5α,6α)-6-[N-(5-nitro-2-furylmethyl)-N-methyl]aminomethyl]-3-azabicyclo-[3.1.0]hexane]phenyl]-2-oxo-5-oxazolidinyl]methyl]acetamide]	2 (≈ 3.99 µM)	2 (≈ 3.99 µM)	2 (≈ 3.99 µM)	2 (≈ 3.99 µM)	1 (≈ 1.99 µM)	4 (≈ 7.98 µM)	0.125 (≈ 0.249 µM)	2 (≈ 3.99 µM)	–	Geometric Mean of in vitro activity (MIC) [11]: 1.83 µg/mL; MIC50 [11]: 2 µg/mL (≈ 3.99 µM); MIC90 [11]: 4 µg/mL (≈ 7.98 µM); Geometric Mean of in vitro activity (MIC) [12]: 2.38 µg/mL; MIC50 [12]: 2 µg/mL (≈ 3.99 µM); MIC90 [12]: 4 µg/mL (≈ 7.98 µM); Geometric Mean of in vitro activity (MIC) [13]: 0.71 µg/mL; MIC50 [13]: 1 µg/mL (≈ 1.99 µM); MIC90 [13]: 1 µg/mL (≈ 1.99 µM); MIC50 [14]: 1 µg/mL (≈ 1.99 µM); MIC90 [14]: 2 µg/mL (≈ 3.99 µM); Geometric Mean of in vitro activity (MIC) [14]: 0.93 µg/mL
CC1(C)S[C@@H]2[C@H](NC(=O)Cc3ccccc3)C(=O)N2[C@H]1C(=O)O [Penicillin G, reference compound]	–	–	–	–	–	–	–	–	–	Geometric Mean of in vitro activity (MIC) [13]: 2.16 µg/mL; MIC50 [13]: 4 µg/mL (≈ 12 µM); MIC90 [13]: 32 µg/mL (≈ 95.7 µM); MIC50 [14]: 4 µg/mL (≈ 12 µM); MIC90 [14]: 32 µg/mL (≈ 95.7 µM); Geometric Mean of in vitro activity (MIC) [14]: 0.76 µg/mL
CC(=O)NC[C@H]1CN(c2ccc(N3CCC(N(C)Cc4ccc([N+](=O)[O-])o4)CC3)c(F)c2)C(=O)O1 [Compound No. 50, (S)-N-[[3-[4-[4-(N-methyl-N-2-furyl(5-nitro)methyl)-aminopiperidine-1-yl]-3-fluorophenyl]-2oxo-oxazolidin-5-yl]methyl]acetamide]	1 (≈ 2.04 µM)	1 (≈ 2.04 µM)	2 (≈ 4.09 µM)	1 (≈ 2.04 µM)	0.5 (≈ 1.02 µM)	0.25 (≈ 0.511 µM)	0.125 (≈ 0.255 µM)	0.5 (≈ 1.02 µM)	0.5 (≈ 1.02 µM)	MIC ([5]; Table 5): 0.5 µg/mL (≈ 1.02 µM); Geometric Mean of in vitro activity (MIC) [11]: 1 µg/mL; MIC50 [11]: 1 µg/mL (≈ 2.04 µM); MIC90 [11]: 2 µg/mL (≈ 4.09 µM); Geometric Mean of in vitro activity (MIC) [12]: 0.42 µg/mL; MIC50 [12]: 0.5 µg/mL (≈ 1.02 µM); MIC90 [12]: 1 µg/mL (≈ 2.04 µM); Geometric Mean of in vitro activity (MIC) [13]: 1.41 µg/mL; MIC50 [13]: 1 µg/mL (≈ 2.04 µM); MIC90 [13]: 2 µg/mL (≈ 4.09 µM); MIC50 [14]: 1 µg/mL (≈ 2.04 µM); MIC90 [14]: 2 µg/mL (≈ 4.09 µM); Geometric Mean of in vitro activity (MIC) [14]: 0.72 µg/mL
CC(=O)NC[C@H]1CN(c2ccc(N3CCN(C(=O)c4ccc(Br)o4)CC3)c(F)c2)C(=O)O1 [Compound No. 04]	2 (≈ 3.93 µM)	2 (≈ 3.93 µM)	1 (≈ 1.96 µM)	2 (≈ 3.93 µM)	–	1 (≈ 1.96 µM)	2 (≈ 3.93 µM)	2 (≈ 3.93 µM)	1 (≈ 1.96 µM)	ED50 (mg/kg body weight) PO [10]: >25 mg/kg body weight
CC(=O)NC[C@H]1CN(c2ccc(N3C[C@@H]4[C@H](C3)[C@H]4N(C)Cc3ccc([N+](=O)[O-])s3)c(F)c2)C(=O)O1 [Compound No. 34, (S)-N-[[3-[3-Fluoro[4-[3-(1α,5α,6α)-6-[N-(5-nitro-2-thienyl-methyl)-N-methyl]amino]-3-azabicyclo-[3.1.0]hexane]phenyl]-2-oxo-5-oxazolidinyl]methyl]acetamide]	1 (≈ 1.99 µM)	1 (≈ 1.99 µM)	4 (≈ 7.94 µM)	1 (≈ 1.99 µM)	1 (≈ 1.99 µM)	1 (≈ 1.99 µM)	2 (≈ 3.97 µM)	1 (≈ 1.99 µM)	4 (≈ 7.94 µM)	–
